In patent US20250151724A1, “Liquid Soil Treatments Containing Choline” (Harrell's, LLC, priority 2023, published 2025):

Test system: creeping bentgrass
Assay: Experiment No. 1: growth chamber pot trial, foliar GB and choline under heat and mild drought stress
Format: in vivo
Conditions: for increase of chlorophyll content: day 56, vs control; for Root Viability: TTC method
Method: A growth chamber pot trial was conducted as follows. […] The choline used in this study was supplied in the form of choline chloride from Sigma-Aldrich, Inc. (St. Louis, MO). […] These conditions simulated summer putting green stress. The treatments were as follows: • 1. […] GB at 0.5 oz./1,000 ft^2 every 14 days. • 3. GB at 1.0 oz./1,000 ft^2 every 14 days. • 4. […] The rate and source of fertilization for treatments #2-7 was the same as treatment #1 (fertilized control), so all seven treatments received identical fertility input. […] The term “low rate” is used in this description of Experiment No. 1 to refer to 0.5 oz./1,000 ft^2 treatments, while the term “high rate” is used to refer to 1.0 oz./1,000 ft^2 treatments. […] Photochemical efficiency (PE). Photochemical Efficiency was measured with a chlorophyll fluorometer (OS-50II, Opti-Sciences, Inc., Hudson, NH) biweekly based on the Fv/Fm, which is the ratio of variable chlorophyll fluorescence (Fv) to maximum chlorophyll fluorescence (Fm). […] Chlorophyll content. After clipping yields were weighed, leaf tissues were ground into powder, and chlorophyll was extracted in pure acetone content for 72 hours, and the absorbance was measured using a spectrophotometer. • e. Leaf carotenoids were extracted in the same sample as for chlorophyll content and carotenoids were measured using a spectrophotometer (Zhang et al., 2005). • f. Leaf proline content. […] After centrifuging, the supernatant was collected, and proline was analyzed according to Wu et al., 2017. • g. Root viability. […] Root growth characteristics. At the end of trial, roots from each pot were washed and cleaned. Roots were scanned using WinRHIZOTM technology (Regent Instruments Inc., Quebec, Canada), and root length, root surface area, root diameter, and root volume were calculated. (Zhang et al., 2017). • i. Root biomass of each pot was determined at the end of the trial. Roots were dried at 65° C. for 72 hours before being weighed.

C[N+](C)(C)CCO.[Cl-] [Choline, choline chloride]
increase of chlorophyll content (0.5 oz): 32.4%
Clippings dry wt (0.5 oz/1000 ft^2, Total): 0.691bc g/pot
Carotenoids (0.5 oz/1000 ft^2, day 0): 1.32a mg/g FW
Chlorophyll (0.5 oz/1000 ft^2, day 0): 3.50a mg/g FW
Leaf color (1-9, 9 = dark green) (0.5 oz/1000 ft^2, day 0): 7.5a
PE (Fv/Fm) (0.5 oz/1000 ft^2, day 0): 0.763a
Proline (0.5 oz/1000 ft^2, day 0): 20.1a mg/g FW
Carotenoids (0.5 oz/1000 ft^2, day 14): 1.32a mg/g FW
Chlorophyll (0.5 oz/1000 ft^2, day 14): 3.51a mg/g FW
Clippings dry wt (0.5 oz/1000 ft^2, day 14): 0.149b g/pot
Leaf color (1-9, 9 = dark green) (0.5 oz/1000 ft^2, day 14): 7.3abc
PE (Fv/Fm) (0.5 oz/1000 ft^2, day 14): 0.751a
Proline (0.5 oz/1000 ft^2, day 14): 46.1a mg/g FW
Carotenoids (0.5 oz/1000 ft^2, day 28): 1.18ab mg/g FW
Chlorophyll (0.5 oz/1000 ft^2, day 28): 3.09ab mg/g FW
Clippings dry wt (0.5 oz/1000 ft^2, day 28): 0.151b g/pot
Leaf color (1-9, 9 = dark green) (0.5 oz/1000 ft^2, day 28): 6.9a
PE (Fv/Fm) (0.5 oz/1000 ft^2, day 28): 0.676ab
Proline (0.5 oz/1000 ft^2, day 28): 24.3b mg/g FW
Carotenoids (0.5 oz/1000 ft^2, day 42): 1.12a mg/g FW
Chlorophyll (0.5 oz/1000 ft^2, day 42): 2.76ab mg/g FW
Clippings dry wt (0.5 oz/1000 ft^2, day 42): 0.159a g/pot
Leaf color (1-9, 9 = dark green) (0.5 oz/1000 ft^2, day 42): 7.1a
PE (Fv/Fm) (0.5 oz/1000 ft^2, day 42): 0.631b
Proline (0.5 oz/1000 ft^2, day 42): 30.2c mg/g FW
Carotenoids (0.5 oz/1000 ft^2, day 56): 1.12a mg/g FW
Chlorophyll (0.5 oz/1000 ft^2, day 56): 2.98a mg/g FW
Clippings dry wt (0.5 oz/1000 ft^2, day 56): 0.233ab g/pot
Leaf color (1-9, 9 = dark green) (0.5 oz/1000 ft^2, day 56): 7.0a
PE (Fv/Fm) (0.5 oz/1000 ft^2, day 56): 0.649a
Proline (0.5 oz/1000 ft^2, day 56): 79.6a mg/g FW
Root Biomass (0.5 oz/1000 ft^2, end of trial): 1.72ab g/pot
Root Diameter (0.5 oz/1000 ft^2, end of trial): 0.192a mm
Root Length (0.5 oz/1000 ft^2, end of trial): 39.7ab mm/cm^3
Root SA (surface area) (0.5 oz/1000 ft^2, end of trial): 2.40ab cm^3/cm^3
Root Volume (0.5 oz/1000 ft^2, end of trial): 11.6a dm^3/cm^3
Root Viability (0.5 oz/1000 ft^2, end of trial): 0.739bcd A490/g FW
increase of chlorophyll content (1.0 oz): 22.2%
Clippings dry wt (1.0 oz/1000 ft^2, Total): 0.842ab g/pot
Carotenoids (1.0 oz/1000 ft^2, day 0): 1.31a mg/g FW
Chlorophyll (1.0 oz/1000 ft^2, day 0): 3.46a mg/g FW
Leaf color (1-9, 9 = dark green) (1.0 oz/1000 ft^2, day 0): 7.5a
PE (Fv/Fm) (1.0 oz/1000 ft^2, day 0): 0.777a
Proline (1.0 oz/1000 ft^2, day 0): 19.8a mg/g FW
Carotenoids (1.0 oz/1000 ft^2, day 14): 1.33a mg/g FW
Chlorophyll (1.0 oz/1000 ft^2, day 14): 3.51a mg/g FW
Clippings dry wt (1.0 oz/1000 ft^2, day 14): 0.187ab g/pot
Leaf color (1-9, 9 = dark green) (1.0 oz/1000 ft^2, day 14): 7.5a
PE (Fv/Fm) (1.0 oz/1000 ft^2, day 14): 0.738ab
Proline (1.0 oz/1000 ft^2, day 14): 43.5ab mg/g FW
Carotenoids (1.0 oz/1000 ft^2, day 28): 1.23a mg/g FW
Chlorophyll (1.0 oz/1000 ft^2, day 28): 3.31a mg/g FW
Clippings dry wt (1.0 oz/1000 ft^2, day 28): 0.183ab g/pot
Leaf color (1-9, 9 = dark green) (1.0 oz/1000 ft^2, day 28): 7.3a
PE (Fv/Fm) (1.0 oz/1000 ft^2, day 28): 0.718ab
Proline (1.0 oz/1000 ft^2, day 28): 24.6b mg/g FW
Carotenoids (1.0 oz/1000 ft^2, day 42): 1.17a mg/g FW
Chlorophyll (1.0 oz/1000 ft^2, day 42): 2.93a mg/g FW
Clippings dry wt (1.0 oz/1000 ft^2, day 42): 0.223a g/pot
Leaf color (1-9, 9 = dark green) (1.0 oz/1000 ft^2, day 42): 7.1a
PE (Fv/Fm) (1.0 oz/1000 ft^2, day 42): 0.683ab
Proline (1.0 oz/1000 ft^2, day 42): 43.8ab mg/g FW
Carotenoids (1.0 oz/1000 ft^2, day 56): 1.06a mg/g FW
Chlorophyll (1.0 oz/1000 ft^2, day 56): 2.75ab mg/g FW
Clippings dry wt (1.0 oz/1000 ft^2, day 56): 0.249a g/pot
Leaf color (1-9, 9 = dark green) (1.0 oz/1000 ft^2, day 56): 7.0a
PE (Fv/Fm) (1.0 oz/1000 ft^2, day 56): 0.664a
Proline (1.0 oz/1000 ft^2, day 56): 67.6a mg/g FW
Root Biomass (1 oz/1000 ft^2, end of trial): 1.57ab g/pot
Root Diameter (1 oz/1000 ft^2, end of trial): 0.192a mm
Root Length (1 oz/1000 ft^2, end of trial): 39.0ab mm/cm^3
Root SA (surface area) (1 oz/1000 ft^2, end of trial): 2.32ab cm^3/cm^3
Root Volume (1 oz/1000 ft^2, end of trial): 11.0a dm^3/cm^3
Root Viability (1 oz/1000 ft^2, end of trial): 1.019abc A490/g FW
